This passage reports IC50 results from patent US20210236476A1, “METHODS OF TREATING CANCER WITH SMALL MOLECULE PD-L1 INHIBITORS” (CHEMOCENTRYX, INC., priority 2018, published 2021).

Bounds are passed on as bounds.

This test addresses T1, human PD-L1 / human PD-1 interaction (Homo sapiens, UniProt Q9NZQ7).
T1 construct: purchased R&D (PD-L1); ACRO Biosystems (PD-1, biotin)
In words: ELISA of PD-1/PD-L1 interaction. The class given is binding. The gist of the method: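 Plates coated with 1 μg/mL human PD-L1 and blocked with BSA; serially diluted (1:5) compounds plus biotinylated human PD-1 (0.3 μg/mL) incubated 1 h at 37° C. Bound PD-1 detected with streptavidin-HRP/TMB, absorbance at 450 nm.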

T1 sequence (Q9NZQ7 19-239 limits assumed): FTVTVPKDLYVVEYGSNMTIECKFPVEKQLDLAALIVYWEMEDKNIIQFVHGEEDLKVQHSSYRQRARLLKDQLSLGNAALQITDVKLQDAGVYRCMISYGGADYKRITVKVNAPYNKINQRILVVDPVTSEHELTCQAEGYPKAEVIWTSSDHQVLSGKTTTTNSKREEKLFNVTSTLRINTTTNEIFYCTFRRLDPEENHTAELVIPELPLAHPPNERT

Turning to `N#Cc1cncc(COc2cc(O[C@H]3CCc4c(-c5cccc(OCCCN6CC7(CC(F)C7)C6)c5Cl)cccc43)c(Cl)cc2CNC[C@H]2CCC(=O)N2)c1`, the IC50 – broadly, the point on the concentration scale where inhibition reaches its midpoint – was below 5 nM. In the case of `Cc1c(OCCCN2CCCC2(C)C)cccc1-c1cccc2c1CC[C@@H]2Oc1cc(OCc2cc(C#N)cc(C#N)c2)c(CN[C@H]2CCC(=O)NC2)cc1Cl` it was below 5 nM; in that of `C[C@@H](O)[C@H](NCc1cc(Cl)c(O[C@H]2CCc3c(-c4cccc(OCCCN5CCC(C)(F)CC5)c4Cl)cccc32)cc1OCc1cncc(C#N)c1)C(=O)NS(C)(=O)=O`, below 5 nM. The result for `N#Cc1cc(C#N)cc(COc2cc(O[C@H]3CCc4c(-c5cccc(OCCCN6CCC(F)CC6)c5Cl)cccc43)c(Cl)cc2CNC[C@H]2CCC(=O)N2)c1` reads below 5 nM; that for `C[C@@](CO)(NCc1cc(Cl)c(O[C@H]2CCc3c(-c4cccc(OCCCN5CC(O)C5)c4Cl)cccc32)cc1OCc1cncc(C#N)c1)C(=O)O` [drawing 79], below 5 nM.

Consider `N#Cc1cncc(COc2cc(O[C@H]3CCc4c(-c5cccc(OCCCN6CCC(F)CC6)c5Cl)cccc43)c(Cl)cc2CN[C@@H]2CCC[C@@H]2O)c1`, for which the IC50 is below 5 nM. For `CCOc1cc(O[C@H]2CCc3c(-c4cccc(OCCCN5CCC(O)CC5)c4C)cccc32)c(Cl)cc1CN[C@@H](CO)C(=O)O`, the IC50 is below 5 nM. In the case of `Cc1c(OCCCN2CCC(O)CC2)cccc1-c1cccc2c1CC[C@@H]2Oc1cc(OCc2cncc(C#N)c2)c(CN[C@@H](CO)C(N)=O)cc1Cl` it was below 5 nM. The result for `CCOc1cc(O[C@H]2CCc3c(-c4cccc(OCCCN5C(C)CC5C)c4C)cccc32)c(Cl)cc1CNC[C@@H]1CCC(=O)N1` (some centres unmarked) reads below 5 nM; that for `Cc1c(OCCCN2CCC(O)CC2)cccc1-c1cccc2c1CCC2Oc1cc(OCc2cc(C#N)cc(C#N)c2)c(CN[C@@H](CO)C(=O)O)cc1Cl` (some centres unmarked), below 5 nM. In the case of `N#Cc1cncc(COc2cc(O[C@H]3CCc4c(-c5cccc(OCCCN6CC[C@@H](F)C6)c5Cl)cccc43)c(Cl)cc2CN[C@@H]2CCCC[C@@H]2O)c1` it was below 5 nM; in that of `CC(CO)(NCc1cc(Cl)c(O[C@H]2CCc3c(-c4cccc(OCCCN5CC(F)C5)c4Cl)cccc32)cc1OCc1cncc(C#N)c1)C(=O)O` (some centres unmarked), below 5 nM. For `N#Cc1cncc(COc2cc(O[C@H]3CCc4c(-c5cccc(OCCCN6CCC(F)CC6)c5Cl)cccc43)c(Cl)cc2CNC[C@@H]2CCC(=O)N2)c1`, the IC50 was below 5 nM. The compound `Cc1c(OCCCN2CCC[C@H](O)C2)cccc1-c1cccc2c1CC[C@@H]2Oc1cc(OCc2cncc(C#N)c2)c(CN[C@H](C(=O)O)[C@@H](C)O)cc1Cl` displayed an IC50 below 5 nM. Take `N#Cc1cncc(COc2cc(O[C@H]3CCc4c(-c5cccc(OCCCN6CCC(F)CC6)c5Cl)cccc43)c(Cl)cc2CNC[C@H]2CCC(=O)N2)c1`: the IC50 is below 5 nM.

`COC(=O)C1(O)CCN(CCCOc2cccc(-c3cccc4c3CC[C@@H]4Oc3cc(OCc4cncc(C#N)c4)c(CN[C@H](C(=O)O)[C@@H](C)O)cc3Cl)c2C)C1` (some centres unmarked) returned an IC50 below 5 nM.

In turn, `CC1(O)CCN(Cc2cc(Cl)c(O[C@H]3CCc4c(-c5cccc(OCCCN6CCC(F)CC6)c5Cl)cccc43)cc2OCc2cncc(C#N)c2)CC1` gave an IC50 below 5 nM. Consider `CN1CCC(COc2cccc(-c3cccc4c3CC[C@@H]4Oc3cc(OCc4cncc(C#N)c4)c(CNC[C@H]4CCC(=O)N4)cc3Cl)c2Cl)C1` (some centres unmarked), for which the IC50 is below 5 nM.

`CCOc1cc(O[C@H]2CCc3c(-c4cccc(OCCCN5C(C)CC5(C)C)c4C)cccc32)c(Cl)cc1CNC[C@@H]1CCC(=O)N1` (some centres unmarked) came in with an IC50 below 5 nM. As for `N#Cc1cncc(COc2cc(O[C@H]3CCc4c(-c5cccc(OCCCN6CC7(CC(O)C7)C6)c5Cl)cccc43)c(Cl)cc2CNC[C@H]2CCC(=O)N2)c1`, the IC50 is below 5 nM. In turn, `N#Cc1cncc(COc2cc(O[C@H]3CCc4c(-c5cccc(OCCCN6CCC(F)CC6)c5Cl)cccc43)c(Cl)cc2CN[C@@H]2CCOC[C@H]2O)c1` showed an IC50 below 5 nM. Compound `N#Cc1cncc(COc2cc(O[C@H]3CCc4c(-c5cccc(OCCCN6CC7(C6)CC(F)(F)C7)c5Cl)cccc43)c(Cl)cc2CN[C@@H]2CCC[C@@H]2O)c1` had an IC50 below 5 nM.

In the case of `N#Cc1cncc(COc2cc(O[C@H]3CCc4c(-c5cccc(OCCCN6CC7(C6)CC(F)(F)C7)c5Cl)cccc43)c(Cl)cc2CN[C@@H]2CC[C@H]2O)c1`, the IC50 was below 5 nM. The result for `CCN1CCC(COc2cccc(-c3cccc4c3CC[C@@H]4Oc3cc(OCc4cncc(C#N)c4)c(CNC[C@@H]4CCC(=O)N4)cc3Cl)c2Cl)C1` (some centres unmarked) reads below 5 nM; that for `CCOc1cc(O[C@H]2CCc3c(-c4cccc(OCCCN5[C@H](C)CC[C@H]5C)c4C)cccc32)c(Cl)cc1CN1CCCC[C@H]1C(=O)O`, 5 to 500 nM. The result for `CCOc1cc(O[C@H]2CCc3c(-c4cccc(OCCCN5CC[C@@H](O)C5)c4C)cccc32)c(Cl)cc1CN[C@@H](CO)C(=O)O` reads below 5 nM; that for `Cc1c(OCCCN2CCC(CO)CC2)cccc1-c1cccc2c1CC[C@@H]2Oc1cc(OCc2cncc(C#N)c2)c(CN[C@H](C(=O)O)[C@@H](C)O)cc1Cl`, below 5 nM. In the case of `CCOc1cc(O[C@H]2CCc3c(-c4cccc(OCCCN5CCC(F)CC5)c4C)cccc32)c(Cl)cc1CN[C@@H](CO)C(=O)O` it was below 5 nM; in that of `Cc1c(OCCCN2CC[C@H](F)C[C@@H]2C)cccc1-c1cccc2c1CC[C@@H]2Oc1cc(OCc2cc(C#N)cc(C#N)c2)c(CN[C@H]2CCC(=O)NC2)cc1Cl`, 5 to 500 nM.

On to `CCOc1cc(O[C@H]2CCc3c(-c4cccc(OCCCN5CC[C@@H](O)C5)c4C)cccc32)c(Cl)cc1CN[C@H](C(=O)O)[C@@H](C)O`, for which the IC50 is below 5 nM.

As for `Cc1c(OCCCN2CC(O)C2)cccc1-c1cccc2c1CC[C@@H]2Oc1cc(OCc2cncc(C#N)c2)c(CN[C@H](C(=O)O)[C@@H](C)O)cc1Cl`, the 50% inhibitory concentration (IC50) was below 5 nM. With `Cc1c(OCCCN2CC(O)C2)cccc1-c1cccc2c1CC[C@@H]2Oc1cc(OCc2cncc(C#N)c2)c(CNCC2CCC(=O)N2)cc1Cl` (some centres unmarked), the IC50 was below 5 nM. For `Cc1c(OCCCN2CCC(O)CC2)cccc1-c1cccc2c1CC[C@@H]2Oc1cc(OCc2cncc(C#N)c2)c(CNC2(C(=O)O)CCC2)cc1Cl`, the IC50 was below 5 nM. In the case of `C[C@@H](O)[C@H](NCc1cc(Cl)c(O[C@H]2CCc3c(-c4cccc(OCCCN5CC(O)C5)c4Cl)cccc32)cc1OCc1cncc(C#N)c1)C(=O)O` it was below 5 nM. The result for `CCOc1cc(O[C@H]2CCc3c(-c4cccc(OCCCN5CC6(CC(O)C6)C5)c4C)cccc32)c(Cl)cc1CN[C@@H](CO)C(=O)O` reads below 5 nM; that for `CCOc1cc(O[C@H]2CCc3c(-c4cccc(OCCCN5CCC5(C)C)c4C)cccc32)c(Cl)cc1CNCCC(=O)OC(C)C`, 5 to 500 nM. The result for `Cc1c(OCCCN2CCC(O)CC2)cccc1-c1cccc2c1CC[C@@H]2Oc1cc(OCc2cncc(C#N)c2)c(CN[C@@H]2CCCC[C@H]2O)cc1Cl` reads below 5 nM. Turning to `N#Cc1cncc(COc2cc(O[C@H]3CCc4c(-c5cccc(OCCCN6CCC(O)CC6)c5Cl)cccc43)c(Cl)cc2CNCC2CCC(=O)N2)c1` (some centres unmarked), the IC50 was below 5 nM.

`Cc1c(OCCCN2CCC(O)CC2)cccc1-c1cccc2c1CC[C@@H]2Oc1cc(OCc2cc(C#N)cc(C#N)c2)c(CN[C@@H](CO)C(=O)O)cc1Cl` gave an IC50 below 5 nM. Compound `CN1CCC(COc2cccc(-c3cccc4c3CC[C@@H]4Oc3cc(OCc4cncc(C#N)c4)c(CN[C@@H]4CCCC[C@@H]4O)cc3Cl)c2Cl)C1` (some centres unmarked) had an IC50 below 5 nM.

`Cc1c(OCCCN2CCC(O)CC2)cccc1-c1cccc2c1CC[C@@H]2Oc1cc(OCc2cncc(C#N)c2)c(CNCC(C)(C)O)cc1Cl` displayed an IC50 below 5 nM. The result for `N#Cc1cncc(COc2cc(O[C@H]3CCc4c(-c5cccc(OCCCN6CCC(O)CC6)c5Cl)cccc43)c(Cl)cc2CN[C@@H]2CCCC[C@@H]2O)c1` reads below 5 nM; that for `N#Cc1cncc(COc2cc(O[C@H]3CCc4c(-c5cccc(OCCCN6CCC(F)CC6)c5Cl)cccc43)c(Cl)cc2CN2CC(C(=O)O)C2)c1`, below 5 nM; that for `Cc1c(OCCCN2[C@H](C)CC[C@H]2C)cccc1-c1cccc2c1CC[C@@H]2Oc1cc(OCc2cc(C#N)cc(C#N)c2)c(CN[C@H]2CCC(=O)NC2)cc1Cl`, below 5 nM. For `N#Cc1cncc(COc2cc(O[C@H]3CCc4c(-c5cccc(OCCCN6CC7(CC(F)C7)C6)c5Cl)cccc43)c(Cl)cc2CN[C@H]2CC[C@@H]2O)c1`, the IC50 is below 5 nM. In the case of `CC(CO)(NCc1cc(Cl)c(O[C@H]2CCc3c(-c4cccc(OCCCN5CCOCC5)c4Cl)cccc32)cc1OCc1cncc(C#N)c1)C(=O)O` (some centres unmarked) it was below 5 nM; in that of `Cc1c(OCCCNC[C@@H](O)CO)cccc1-c1cccc2c1CC[C@@H]2Oc1cc(OCc2cncc(C#N)c2)c(CN[C@H](C(=O)O)[C@@H](C)O)cc1Cl`, below 5 nM.
